According to patent USRE47475E1, “Selective agents for pain suppression” (WiSys Technology Foundation, Inc., priority 2002, dated 2019):

What was measured:
[1] = tested on: seizures; settings: rats, even orally; cited from earlier work
[2] = biological target: T1, GABAA/α3 (α3β3γ2 GABAA receptor) (Homo sapiens, UniProt P18507+P34903); assay: competitive binding assay with [3H]flunitrazepam; settings: Table 3; read-out: Binding Affinity at GABAA/α3
T1 construct: expressed in transfected cells
Experimental: (§1) Membranes were harvested with a Brandel cell harvester followed by three ice-cold washes onto polyethyleneimine-pretreated (0.3%) Whatman GF/C filters. Filters were dried overnight and then soaked in Ecoscint, a liquid scintillation cocktail (National Diagnostics; Atlanta, Ga.). Bound radioactivity was quantified by liquid scintillation counting. Membrane protein concentrations were determined using an assay kit from Bio-Rad (Hercules, Calif.) with bovine serum albumin as the standard.
as §1, with “The GABAA subunit selectivity of several compounds prepared as described above were determined using competitive binding assays. […] Membranes” for “Membranes”

[3] = biological target: T2, GABAA/α2 (α2β3γ2 GABAA receptor) (Homo sapiens, UniProt P18507+P47869); assay: competitive binding assay with [3H]flunitrazepam; settings: Table 3; read-out: Binding Affinity at GABAA/α2
T2 construct: expressed in transfected cells
Experimental: as §1
as §1, with “The GABAA subunit selectivity of several compounds prepared as described above were determined using competitive binding assays. […] Membranes” for “Membranes”

[4] = biological target: T3, GABAA/α6 (α6β3γ2 GABAA receptor) (Homo sapiens, UniProt P18507+Q16445); assay: competitive binding assay with [3H]flunitrazepam; settings: Table 3; read-out: Binding Affinity at GABAA/α6
T3 construct: expressed in transfected cells
Experimental: as §1
as §1, with “The GABAA subunit selectivity of several compounds prepared as described above were determined using competitive binding assays. […] Membranes” for “Membranes”

[5] = biological target: T4, GABAA/α1 (α1β3γ2 GABAA receptor) (Homo sapiens, UniProt P14867+P18507); assay: competitive binding assay with [3H]flunitrazepam; settings: Table 3; read-out: Binding Affinity at GABAA/α1
T4 construct: expressed in transfected cells
Experimental: as §1
as §1, with “The GABAA subunit selectivity of several compounds prepared as described above were determined using competitive binding assays. […] Membranes” for “Membranes”

[6] = biological target: T5, GABAA/α4 (α4β3γ2 GABAA receptor) (Homo sapiens, UniProt P18507+P48169); assay: competitive binding assay with [3H]flunitrazepam; settings: Table 3; read-out: Binding Affinity at GABAA/α4
T5 construct: expressed in transfected cells
Experimental: as §1
as §1, with “The GABAA subunit selectivity of several compounds prepared as described above were determined using competitive binding assays. […] Membranes” for “Membranes”

[7] = biological target: T6, GABAA/α5 (α5β3γ2 GABAA receptor) (Homo sapiens, UniProt P18507+P31644); assay: competitive binding assay with [3H]flunitrazepam; settings: Table 3; read-out: Binding Affinity at GABAA/α5
T6 construct: expressed in transfected cells
Experimental: as §1
as §1, with “The GABAA subunit selectivity of several compounds prepared as described above were determined using competitive binding assays. […] Membranes” for “Membranes”

| SMILES | anticonvulsant activity of the sole metabolite [1] | Ki [2] | Ki [3] | Ki [4] | Ki [5] | Ki [6] | Ki [7] |
| --- | --- | --- | --- | --- | --- | --- | --- |
| C#Cc1ccc2c(c1)C(c1ccccn1)=NCc1c(C(=O)O)ncn1-2 [HZ-166 acid] | anticonvulsant |  |  |  |  |  |  |
| C#Cc1ccc2c(c1)C(c1ccccc1)=NCC(=O)N2C [QB-II-066, 1-Methyl-7-acetyleno-5-phenyl-1,3-dihydro-benzo[e]-1,4-diazepin-2-one] |  | 47.4 nM | 42.1 nM | > 1000 nM | 76.3 nM | > 1000 nM | 6.8 nM |
